Assay results: patent US6448229B2, “Gamma secretase inhibitors” (Merck Sharp & Dohme Ltd., priority 2000, dated 2002)

System: Notch signalling
Assay: Xenopus developmental assay for Notch activity (tail bud formation)
Assay type: in vivo, Xenopus laevis
Conditions: Xenopus embryos cultured with compound from stage 15 to stage 40
Experimental: The following assay was used to determine the effect of compounds on Notch signalling.
Xenopus embryos were cultured in 1/10 NAM [Beck & Slack, Development, 126, 1611-1620, 1999] supplemented with protease inhibitors ([…] stock in DMSO) from stage 15 [P. D. Nieuwkoop and J. Faber, Normal table of Xenopus laevis, Daudin 1967, Reprinted Garland 1994] (24 hours), to stage 40 (3 days). Control siblings were incubated in 1/10 NAM containing 0.05% DMSO. At 3 days they were fixed in batches of 20 and measured using a graduated eyepiece on a Wild dissecting microscope set to 25×. Each tadpole was measured from head to proctodaeum (head and trunk) and from proctodaeum to tail tip (tail). Tail buds were extirpated at stage 30 and cultured for 24 hours as described previously [Tucker & Slack, Development, 121, 249-262, 1995]. Somites were detected by staining with monoclonal antibody 12/101 [Kintner & Brockes, Nature, 308, 67-69, 1984], as described elsewhere [Tucker & Slack, 1995]. In situ hybridisation for Xhox3 has been previously described [Beck & Slack, Mech. Dev., 72, 41-52, 1998].

## CC(NC(=O)Cc1cc(F)cc(F)c1)C(=O)NC(C(=O)NCC1CN(c2ccccc2)CCO1)c1ccccc1 (mixture of isomers) [Example 1, 2-[2-(3,5-Difluorophenyl)acetylamino]-N-{phenyl[(4-phenylmorpholin-2-ylmethyl)carbamoyl]methyl}propionamide]
  inhibition of tail bud formation: did not significantly inhibit tail bud formation
